From paper PMC10253456, “Investigating the Contribution of Major Drug-Metabolising Enzymes to Possum-Specific Fertility Control” (International Journal of Molecular Sciences, 2023)
Like-named read-outs stand apart in the source and are kept apart here.

Tests used:
[1] = test system: UGT2B (heading: UGT2B4); experiment: p-nitrophenol glucuronidation activity in possum liver microsomes; format: biochemical, possum (Trichosurus vulpecula); details: possum (Trichosurus vulpecula)
[2] = test system: UGT2B; experiment: as above; format: biochemical, possum (Trichosurus vulpecula); details: compound at estimated 2-fold IC50
[3] = test system: UGT2B; details: avian; compound at estimated 2-fold IC50
[4] = test system: UGT2B (heading: UGT2B4); experiment: in vitro; details: BALB/c, mouse, pH 7.4
[5] = test system: UGT2B (heading: UGT2B4); experiment: in vitro; details: avian (mallards and a swan), pH 7.4
[6] = test system: UGT2B (heading: UGT2B4); experiment: in vitro; details: human, pH 7.4
[7] = test system: UGT2B; experiment: p-nitrophenol glucuronidation activity in mouse liver microsomes
[8] = test system: UGT2B; experiment: p-nitrophenol glucuronidation activity in pooled human liver microsomes
[9] = test system: CYP3A; experiment: CYP3A catalytic activity (erythromycin N-demethylation) in mouse liver microsomes; details: for Percent control catalytic activity at estimated IC50 / Percent control catalytic activity at estimated 2-fold IC50: mouse liver microsomes, initial screen n=1; for Percent control catalytic activity at estimated IC50: compounds without reported IC50 at 1 µM; for Percent control catalytic activity at estimated 2-fold IC50: compounds without reported IC50 at 5 µM
[10] = test system: CYP3A; experiment: CYP3A catalytic activity (erythromycin N-demethylation) in possum liver microsomes; details: for Percent control catalytic activity at estimated IC50 / Percent control catalytic activity at estimated 2-fold IC50: possum liver microsomes, initial screen n=1; for Percent control catalytic activity at estimated IC50: compounds without reported IC50 at 1 µM; for Percent control catalytic activity at estimated 2-fold IC50: compounds without reported IC50 at 5 µM
[11] = test system: UGT2B (heading: UGT2B4); experiment: p-nitrophenol glucuronidation activity in mouse liver microsomes; details: BALB/c, mouse, liver microsomes, pH 7.4, probe p-nitrophenol (0.5 mM final, from 50 µL of 5 mM in 500 µL)
[12] = test system: UGT2B (heading: UGT2B4); experiment: p-nitrophenol glucuronidation activity in pooled human liver microsomes; details: human, pooled human liver microsomes (50 donors), pH 7.4, probe p-nitrophenol (0.5 mM final, from 50 µL of 5 mM in 500 µL)
[13] = test system: CYP3A; details: avian; compound at estimated 2-fold IC50 (5 µM where none reported)
Description: Possums were collected from the Otago Peninsula (Dunedin) and the Okuti Valley, Banks Peninsula (Christchurch) in New Zealand in collaboration with the Otago Peninsula Biodiversity Group and Manaaki Whenua-Landcare Research, respectively. […] Possums were caged and humanely killed by a blow to the head, and the livers were harvested, snap-frozen in liquid nitrogen, and stored in a freezer at −80 °C until the preparation of microsomal fractions. […] Mice were euthanised by carbon dioxide inhalation and the livers were removed and microsomes prepared. […] The livers from avian species (mallards and a swan) were kindly donated by a local bird hunting group based in Dunedin, New Zealand. The livers from avian species were treated similarly to those mentioned above for the possum samples.
Microsomal preparation was carried out as previously described [76]. […] All procedures were performed at 0–4 °C. The liver samples were minced and homogenised in Buffer A (0.1 M Tris, 0.1 M potassium chloride, 1 mM EDTA, and 20 μM butylated hydroxytoluene, at pH = 7.4) using the Teflon-glass homogeniser (5–6 vertical passes). The samples were centrifuged at 10,000× g for 20 min. The supernatant was then transferred into another set of centrifuge tubes and spun at 100,000× g for 60 min. The pellet was resuspended in Buffer B (0.1 M potassium pyrophosphate, 1 mM EDTA, and 20 μM butylated hydroxytoluene, at pH = 7.4), homogenised, and recentrifuged at 100,000× g for 60 min. Finally, the pellet was homogenised in 1–2 mL of Buffer C (10 mM Tris-HCl, 1 mM EDTA, and 4% glycerol (v/v)), and stored at −80 °C until use. The protein concentration of the microsomes was determined using the bicinchoninic acid (BCA) method [77].
(§1) CYP3A catalytic activity was determined using the erythromycin N-demethylation activity assay, as described [78]. The reaction mixture (final volume of 1 mL and final protein concentration of 1 mg) contained 500 µL of microsomes in 0.1 M phosphate buffer (pH 7.4) and 400 µL of erythromycin buffer (0.45 mM), and 50 µL of the test compound was pre-warmed at 37 °C for 2 min. The reaction was initiated with 50 µL of 2.5 mM nicotinamide adenine dinucleotide phosphate (NADP^+) and incubated for 30 min at 37 °C. […] The tubes were vortexed and left for 5 min (at room temperature), and then 330 µL of saturated barium hydroxide was added. The tubes were further vortexed and left for 5 min (at room temperature). The tubes were then centrifuged at 1800× g for 10 min. To 830 µL of the supernatant, 330 µL of Nash reagent (30% (w/v) ammonium acetate, 0.4% (v/v) acetylacetone) was added and further incubated for 30 min at 60 °C. The blank tube contained 330 µL of Nash reagent and 830 µL of Milli-Q water. […] The CYP3A activities were determined in nmol/mg/min using standard curve data. Results presented are the mean ± SEM of 3 independent experiments performed in duplicate unless otherwise stated.

[14] = test system: CYP3A; experiment: CYP3A catalytic activity (erythromycin N-demethylation) in pooled human liver microsomes; details: compound at estimated 2-fold IC50 (5 µM where none reported)
Description: as §1

[15] = test system: UGT2B4, UGT2B7, UGT2B15, and UGT2B17; details: cited from earlier work
[16] = test system: UGT isoforms of the UGT1 and UGT2B families; design: method as in PMID 25008344; details: pooled human liver and intestinal microsomes; read-out: concentration reducing glucuronidation of 4-methylumbelliferone by ~50% of the control; cited from earlier work
[17] = liver microsomes, pH 7.4, probe p-nitrophenol (0.5 mM final, from 50 µL of 5 mM in 500 µL), compound at estimated IC50, read-out: % of control (UGT2B4 catalytic activity at IC50)
[18] = mouse, compound at estimated 2-fold IC50
[19] = pooled human liver microsomes, compound at estimated 2-fold IC50
[20] = pH 7.4, compound at estimated IC50, read-out: % of control (UGT2B4 catalytic activity at IC50)
[21] = mouse, compound at estimated 2-fold IC50 (5 µM where none reported)
[22] = possum, compound at estimated 2-fold IC50 (5 µM where none reported)

## CC(=O)O[C@H](CC=C(C)C)C1=CC(=O)c2c(O)ccc(O)c2C1=O [Acetylshikonin]
[1]; [17]
  activity at 30 min: 96%
[2]
  % of control (UGT2B4 catalytic activity at 2-fold IC50): 101 % of control
  UGT2B4 catalytic activity at 2-fold IC50: 3.70 ± 0.18 µmol/mg/min
[3]
  % of control (UGT2B4 catalytic activity at 2-fold IC50): 84 % of control
  UGT2B4 catalytic activity at 2-fold IC50: 0.53 ± 0.08 µmol/mg/min
[4]
  activity: 93%
[5]
  activity at 30 min: 87%
[6]
  activity: 98%
[7]; [18]
  % of control (UGT2B4 catalytic activity at 2-fold IC50): 94 % of control
  UGT2B4 catalytic activity at 2-fold IC50: 2.92 ± 0.22 µmol/mg/min
[8]; [19]
  % of control (UGT2B4 catalytic activity at 2-fold IC50): 100 % of control
  UGT2B4 catalytic activity at 2-fold IC50: 3.70 µmol/mg/min
[9]
  Percent control catalytic activity at estimated IC50: 100 percent control
  Percent control catalytic activity at estimated 2-fold IC50: 93 percent control
[10]
  Percent control catalytic activity at estimated IC50: 128 percent control
  Percent control catalytic activity at estimated 2-fold IC50: 112 percent control

## O=c1cc(-c2ccccc2)oc2cc(O)c(O)c(O)c12 [Baicalein]
[1]; [20]
  activity at 30 min: 105%
[2]
  % of control (UGT2B4 catalytic activity at 2-fold IC50): 106 % of control
  UGT2B4 catalytic activity at 2-fold IC50: 3.91 ± 0.20 µmol/mg/min
[3]
  % of control (UGT2B4 catalytic activity at 2-fold IC50): 44 % of control
  UGT2B4 catalytic activity at 2-fold IC50: 0.17 ± 0.06 µmol/mg/min
[4]
  activity: 96%
[5]
  activity at 30 min: 56%
[6]
  activity: 97%
[7]
  % of control (UGT2B4 catalytic activity at 2-fold IC50): 95
  UGT2B4 catalytic activity at 2-fold IC50: 3.08±0.04
[8]
  UGT2B4 catalytic activity at 2-fold IC50: 3.95
[9]
  Percent control catalytic activity at estimated IC50: 114 percent control
  Percent control catalytic activity at estimated 2-fold IC50: 99 percent control
[10]
  Percent control catalytic activity at estimated IC50: 102 percent control
  Percent control catalytic activity at estimated 2-fold IC50: 112 percent control

## CC(C)=CCC[C@](C)(O[C@@H]1O[C@H](CO)[C@@H](O)[C@H](O)[C@H]1O)[C@H]1CC[C@]2(C)[C@@H]1[C@H](O)C[C@@H]1[C@@]3(C)CC[C@H](O)C(C)(C)[C@@H]3[C@@H](O)C[C@]12C [Ginsenoside F1]
[1]; [17]
  activity at 30 min: 100%
[2]
  % of control (UGT2B4 catalytic activity at 2-fold IC50): 109 % of control
  UGT2B4 catalytic activity at 2-fold IC50: 4.14 ± 0.18 µmol/mg/min
[3]
  % of control (UGT2B4 catalytic activity at 2-fold IC50): 99 % of control
  UGT2B4 catalytic activity at 2-fold IC50: 0.66 ± 0.14 µmol/mg/min
[4]
  activity: 132%
[5]
  activity at 30 min: 110%
[6]
  activity: 101%
[7]; [18]
  % of control (UGT2B4 catalytic activity at 2-fold IC50): 157 % of control
  UGT2B4 catalytic activity at 2-fold IC50: 4.36 ± 0.01 µmol/mg/min
[8]; [19]
  % of control (UGT2B4 catalytic activity at 2-fold IC50): 100 % of control
  UGT2B4 catalytic activity at 2-fold IC50: 4.01 µmol/mg/min
[9]
  Percent control catalytic activity at estimated IC50: 82 percent control
[10]
  Percent control catalytic activity at estimated IC50: 120 percent control

## O=C(/C=C/C=C/c1ccc2c(c1)OCO2)N1CCCCC1 [Piperine]
[1]; [20]
  activity at 30 min: 103%
[2]
  % of control (UGT2B4 catalytic activity at 2-fold IC50): 103 % of control
  UGT2B4 catalytic activity at 2-fold IC50: 4.29 ± 0.17 µmol/mg/min
[3]
  % of control (UGT2B4 catalytic activity at 2-fold IC50): 86 % of control
  UGT2B4 catalytic activity at 2-fold IC50: 0.55 ± 0.06 µmol/mg/min
[5]
  activity at 30 min: 84%
[11]
  activity at 30 min: 113%
[7]
  % of control (UGT2B4 catalytic activity at 2-fold IC50): 99
  UGT2B4 catalytic activity at 2-fold IC50: 2.70±0.07
[12]
  activity at 30 min: 94%
[8]
  % of control (UGT2B4 catalytic activity at 2-fold IC50): 92
  UGT2B4 catalytic activity at 2-fold IC50: 3.62
[9]
  Percent control catalytic activity at estimated IC50: 126 percent control
  Percent control catalytic activity at estimated 2-fold IC50: 107 percent control
[10]
  Percent control catalytic activity at estimated IC50: 127 percent control
  Percent control catalytic activity at estimated 2-fold IC50: 121 percent control

## Nc1ccc(S(=O)(=O)Nc2ccnn2-c2ccccc2)cc1 [Sulfaphenazole]
[1]; [17]
  activity at 30 min: 105%
[2]
  % of control (UGT2B4 catalytic activity at 2-fold IC50): 99 % of control
  UGT2B4 catalytic activity at 2-fold IC50: 3.59 ± 0.23 µmol/mg/min
[13]
  % of control (catalytic activity at 2-fold IC50): 110 % of control
  Catalytic activity at 2-fold IC50: 0.33 ± 0.06 nmol/mg/min
[3]
  % of control (UGT2B4 catalytic activity at 2-fold IC50): 74 % of control
  UGT2B4 catalytic activity at 2-fold IC50: 0.57 ± 0.14 µmol/mg/min
[5]
  activity at 30 min: 74%
[6]
  activity: 102%
[11]
  activity at 30 min: 103%
[7]
  UGT2B4 catalytic activity at 2-fold IC50: 2.27 ± 0.02 µmol/mg/min
[7]; [18]
  % of control (UGT2B4 catalytic activity at 2-fold IC50): 94 % of control
[8]
  % of control (UGT2B4 catalytic activity at 2-fold IC50): 98
  UGT2B4 catalytic activity at 2-fold IC50: 3.38 µmol/mg/min
[9]
  Percent control catalytic activity at estimated IC50: 96 percent control
  Percent control catalytic activity at estimated 2-fold IC50: 100 percent control
[9]; [21]
  % of control (catalytic activity at 2-fold IC50): 109 % of control
  Catalytic activity at 2-fold IC50: 0.68 ± 0.06 nmol/mg/min
[10]
  Percent control catalytic activity at estimated IC50: 93 percent control
  Percent control catalytic activity at estimated 2-fold IC50: 84 percent control
[10]; [22]
  % of control (catalytic activity at 2-fold IC50): 111 % of control
  Catalytic activity at 2-fold IC50: 0.37 ± 0.04 nmol/mg/min
[14]
  % of control (catalytic activity at 2-fold IC50): 105 % of control
  Catalytic activity at 2-fold IC50: 0.47 nmol/mg/min

## CC(C)(c1ccc(O)cc1)c1ccc(O)cc1 [bisphenol A]
[15]; UGT2B4
  type of inhibition: competitive
[15]; UGT2B7, UGT2B15, and UGT2B17
  type of inhibition: non-competitive

## COc1cc([C@@H]2Oc3ccc([C@H]4Oc5cc(O)cc(O)c5C(=O)[C@@H]4O)cc3O[C@H]2CO)ccc1O [isosilybin B]
[16]
  IC50: 187 µM

## COc1cc([C@@H]2Oc3cc([C@H]4Oc5cc(O)cc(O)c5C(=O)[C@@H]4O)ccc3O[C@H]2CO)ccc1O [silybin B]
[16]
  IC50: 87 µM
